# pKd: −log10 of the molar value. Square brackets hold non-standard residues; d marks the D form. Peptide text beside a SMILES is read from it. Nva = CCC[C@H](N)C(=O)O
# Columns and labels:
# [1] = molecular target: T1, adiponectin receptor ADIPOR1 (Homo sapiens, UniProt Q96A54); test: Kd (uM)
# T1 construct: Flag tag (N); made in house; host or cells: SF9 insect cells (baculovirus, pFASTbac1)
# Excerpt: Table printed on a drawing sheet, FIG. 1
# Head of the field: Kd (uM)
# Where the first naming reader finds the target: description_of_the_figure: dissociation constant values of synthetic peptides (3 peptides from 3rd round, 4 peptides from 4th round) from the adiponectin receptor ADIPOR1
# [2] = molecular target: T2, adiponectin receptor 1 (ADIPOR1) (Homo sapiens, UniProt Q96A54); test: Surface plasmon resonance (SPR) binding of peptide to immobilized recombinant ADIPOR1; settings: ADIPOR1 amine-coupled to CM5 chip, running buffer pH 7.4, read-out: dissociation constant (Kd) from ADIPOR1
# T2 construct: Flag tag (N); made in house; host or cells: SF9 insect cells (baculovirus, pFASTbac1)
# T2 sequence (Q96A54 89-375): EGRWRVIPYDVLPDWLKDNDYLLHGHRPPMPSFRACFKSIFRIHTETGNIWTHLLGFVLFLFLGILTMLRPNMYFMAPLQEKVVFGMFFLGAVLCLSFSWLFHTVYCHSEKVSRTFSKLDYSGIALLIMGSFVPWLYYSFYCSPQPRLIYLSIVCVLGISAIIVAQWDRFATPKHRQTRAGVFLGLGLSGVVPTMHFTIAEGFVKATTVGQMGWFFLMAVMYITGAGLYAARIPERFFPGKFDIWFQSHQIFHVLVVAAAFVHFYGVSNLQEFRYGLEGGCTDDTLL
# Excerpt: The ADIPOR1 protein sequence used was the same as that used for the ADIPOR1 structure analysis, in which 88 amino acids at the N-terminal have been removed. The gene capable of producing the protein sequence was synthesized by codon optimization (IDT). At the time, a BamHI restriction enzyme site, a Flag tag and a TEV protease recognition sequence (ENLYFQG; SEQ ID NO: 11) were inserted at the 5′ end and an EcoRI restriction enzyme site was inserted at the 3′ end in order to facilitate cloning and purify the expressed protein. The obtained gene was inserted into the pFASTbac1 vector required for baculovirus production to perform cloning. The cloned vector was transfected into DH10 bac (Invitrogen) to obtain a bacmid comprising the ADIPOR1 gene through recombination. In order to produce baculovirus, the obtained bacmid was transfected into SF9 cells (5×10^4 cells) using Transfectine (Qiagen), and the baculovirus secreted in a medium was collected after 5 days. Then, a large amount of baculovirus was produced through amplification. The obtained baculovirus was inoculated into SF9 cells (5×10^6 cells/ml) cultured in a 1 L SFM900 medium, and protein was expressed at a temperature of 27° C. for 3 days. The SF9 cells expressing recombinant ADIPOR1 were obtained through centrifugation. The obtained cell pellets were aliquoted and stored at −80° C., and used in protein purification as needed to minimize the disadvantages of membrane proteins, which have the possibility of inactivation due to storage after purification. The ADIPOR1, which is a membrane protein expressed on a cell membrane, was solubilized using a detergent (1% DDM) for purification. The dissolved sample was reacted with anti-Flag antibody bead (Sigma) for 1 hour in ice. Then, ADIPOR1 bound to the anti-Flag antibody bead was eluted with Flag peptide. The primarily purified ADIPOR1 was subjected to size exclusion chromatography (Supderdex200, GE healthcare) to obtain only monomeric, proteins. […]
# In order to analyze the binding force between peptide and ADIPOR1, a purified recombinant ADIPOR1 (A88) was bound to a CM5 chip with 3000 RU or higher through amine coupling. […] The affinity value was calculated using the affinity fitting or kinetics fitting method. […] The peptide concentrations were calculated by measuring the […] and A280 absorbance of each peptide.
# With reference to FIGS. 3 and 4, surface plasmon resonance (SPR) experiments were performed in the present invention to measure the dissociation constant between the agonist peptide and the adiponectin receptor, particularly adiponectin receptor 1 (ADIPOR1). First, an expressed and purified adiponectin receptor ADIPOR1 was immobilized and its dissociation constant from candidate peptides was measured over a total of 4 rounds.
# [3] = test system: AMPK phosphorylation in C2C12 cell line; test: Western blotting of AMPK phosphorylation in differentiated C2C12 myotubes; format: cell-based; settings: 10 min treatment, tested at 20, 4 and 0.8 uM
# Description: (§1) C2C12 and HepG2 cells were purchased from ATCC. Before use, they were cultured in a DMEM (Hyclone) medium supplemented with 10% FBS (Hyclone) and 1% penicillin/streptomycin in an incubator at 37° C. in a 5% CO2 environment.
# C2C12 cells were plated in 12 wells. […] Then, the medium was replaced with a differentiation medium in which DMEM is supplemented with 2.5% horse serum and 1% penicillin/streptomycin. Thereafter, differentiation was performed for 5-7 days, replacing the medium with a new differentiation medium every day. The thus-obtained product was used for experiments.
# Based on the prior finding, after optimization of the number of the cells to be used for experiment, HepG2 was starved for 5 hours, recovered, and treated with peptide for 30 minutes, and C2C12 was starved for 24 hours and treated with peptide for 10 minutes. The treated cell samples were washed once with cold PBS and lysed for 15 minutes with a RiPA buffer containing a protease inhibitor and a phosphatase inhibitor. After 15 minutes, centrifugation was carried out at 14000 rpm for 5 minutes to collect only proteins. After quantification, 4× sample buffer and 2-ME were added to prepare a sample for western blotting. The western blotting was performed using a conventional western blotting technique. […]
# [4] = test system: AMPK phosphorylation in HepG2 cell line; test: Western blotting of AMPK phosphorylation in HepG2 cell line; format: cell-based; settings: HepG2, 5 h starvation, 30 min treatment; tested at 20, 4 and 0.8 uM
# Description: as §1
# Based on the prior finding, after optimization of the number of the cells to be used for experiment, HepG2 was starved for 5 hours, recovered, and treated with peptide for 30 minutes, and C2C12 was starved for 24 hours and treated with peptide for 10 minutes. The treated cell samples were washed once with cold PBS and lysed for 15 minutes with a RiPA buffer containing a protease inhibitor and a phosphatase inhibitor. After 15 minutes, centrifugation was carried out at 14000 rpm for 5 minutes to collect only proteins. After quantification, 4× sample buffer and 2-ME were added to prepare a sample for western blotting. The western blotting was performed using a conventional western blotting technique. The antibodies of AMPK, p-AMPK, p-AKT, p-ACC and GAPDH were diluted to 1:1000 or 1:2000 depending on the type thereof and imaging was performed with a LAS-4000 instrument.
# HepG2 cell line was plated on a 12-well plate at a concentration of 8*10^5 cells/well on the day before the experiment. […]
# T1 sequence (Q96A54 whole entry, looked up): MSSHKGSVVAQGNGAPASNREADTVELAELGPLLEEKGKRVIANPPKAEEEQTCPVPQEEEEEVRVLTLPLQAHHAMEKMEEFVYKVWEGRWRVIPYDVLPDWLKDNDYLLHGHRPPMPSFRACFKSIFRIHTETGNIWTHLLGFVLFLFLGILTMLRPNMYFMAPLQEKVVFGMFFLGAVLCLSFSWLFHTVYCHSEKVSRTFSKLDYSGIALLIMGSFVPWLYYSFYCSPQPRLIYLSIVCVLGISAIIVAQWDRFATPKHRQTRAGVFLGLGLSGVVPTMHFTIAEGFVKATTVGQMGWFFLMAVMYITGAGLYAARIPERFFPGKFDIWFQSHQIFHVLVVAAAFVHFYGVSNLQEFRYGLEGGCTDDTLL
pKd [1],pKd [2],SMILES,other results
4.61,,"CC[C@H](C)[C@H](NC(=O)[C@H](CC(N)=O)NC(=O)[C@@H]1CCCN1C(=O)[C@H](Cc1c[nH]cn1)NC(=O)[C@H](Cc1ccc(O)cc1)NC(=O)[C@H](C)NC(=O)[C@H](Cc1ccccc1)NC(=O)[C@H](CO)NC(=O)[C@@H](N)Cc1ccc(O)cc1)C(=O)N1CCC[C@H]1C(=O)NCC(=O)N[C@@H](CC(C)C)C(=O)N[C@@H](Cc1ccc(O)cc1)C(=O)N[C@@H](Cc1ccc(O)cc1)C(=O)N[C@@H](Cc1ccccc1)C(=O)O [4-5, YSFAYHPNIPGLYYF (SEQ ID NO: 7)] (H-YSFAYHPNIPGLYYF-OH; N-terminus and C-terminus assumed)",
,≤ 4.00,"CCC[C@H](NC(=O)[C@@H]1CCCN1C(=O)[C@@H](NC(=O)[C@H](N)CC(N)=O)[C@@H](C)CC)C(=O)N[C@@H](CC(C)C)C(=O)N[C@@H](Cc1ccc(O)cc1)C(=O)N[C@H](CO)C(=O)N[C@@H](Cc1ccccc1)C(=O)N[C@@H](C)C(=O)N[C@H](CO)C(N)=O [ADP355, H-DAsn-Ile-Pro-Nva-Leu-Tyr-DSer-Phe-Ala-DSer-NH2] (H-[dN]IP[Nva]LY[dS]FA[dS]-NH2)",concentration from which AMPK was phosphorylated [3]: 4 µM; concentration from which AMPK was phosphorylated [4]: 20 µM
,5.00 to 5.22,"CC[C@H](C)[C@H](NC(=O)[C@H](CC(N)=O)NC(=O)[C@@H]1CCCN1C(=O)[C@H](Cc1c[nH]cn1)NC(=O)[C@H](Cc1ccc(O)cc1)NC(=O)[C@H](C)NC(=O)[C@H](Cc1ccccc1)NC(=O)[C@H](Cc1ccc(O)cc1)NC(=O)[C@@H](N)Cc1c[nH]c2ccccc12)C(=O)N1CCC[C@H]1C(=O)NCC(=O)N[C@@H](CC(C)C)C(=O)N[C@@H](Cc1c[nH]c2ccccc12)C(=O)N[C@@H](Cc1ccc(O)cc1)C(=O)N[C@@H](Cc1ccccc1)C(=O)O [peptide 4-3, Trp-Tyr-Phe-Ala-Tyr-His-Pro-Asn-Ile-Pro-Gly-Leu-Trp-Tyr-Phe] (H-WYFAYHPNIPGLWYF-OH)",
,5.37 to 5.70,"CC[C@H](C)[C@H](NC(=O)[C@H](CC(N)=O)NC(=O)[C@@H]1CCCN1C(=O)[C@H](Cc1c[nH]cn1)NC(=O)[C@H](Cc1ccc(O)cc1)NC(=O)[C@H](C)NC(=O)[C@H](Cc1ccccc1)NC(=O)[C@H](Cc1ccc(O)cc1)NC(=O)[C@@H](N)Cc1ccccc1)C(=O)N1CCC[C@H]1C(=O)NCC(=O)N[C@@H](CC(C)C)C(=O)N[C@@H](Cc1ccccc1)C(=O)N[C@@H](Cc1ccc(O)cc1)C(=O)N[C@@H](Cc1ccccc1)C(=O)O [peptide 4-4, Phe-Tyr-Phe-Ala-Tyr-His-Pro-Asn-Ile-Pro-Gly-Leu-Phe-Tyr-Phe] (H-FYFAYHPNIPGLFYF-OH)",

# Second part, the compound before the results:
SMILES,pKd [1],pKd [2],other results
"CC[C@H](C)[C@H](NC(=O)[C@H](CC(N)=O)NC(=O)[C@@H]1CCCN1C(=O)[C@H](Cc1c[nH]cn1)NC(=O)[C@H](Cc1ccc(O)cc1)NC(=O)[C@H](C)NC(=O)[C@H](Cc1ccccc1)NC(=O)[C@H](Cc1ccc(O)cc1)NC(=O)[C@@H](N)Cc1ccc(O)cc1)C(=O)N1CCC[C@H]1C(=O)NCC(=O)N[C@@H](CC(C)C)C(=O)N[C@@H](Cc1ccc(O)cc1)C(=O)N[C@@H](Cc1ccc(O)cc1)C(=O)N[C@@H](Cc1ccccc1)C(=O)O [3-1, YYFAYHPNIPGLYYF (SEQ ID NO: 1 where Xaa1 and Xaa13 each is tyrosine)] (H-YYFAYHPNIPGLYYF-OH; N-terminus and C-terminus assumed)",4.80,,
"CC[C@H](C)[C@H](NC(=O)[C@H](CC(N)=O)NC(=O)[C@@H]1CCCN1C(=O)[C@H](Cc1c[nH]cn1)NC(=O)[C@H](Cc1ccc(O)cc1)NC(=O)[C@H](C)NC(=O)[C@H](Cc1ccccc1)NC(=O)[C@H](Cc1ccc(O)cc1)NC(=O)[C@@H](N)Cc1ccc(O)cc1)C(=O)N1CCC[C@H]1C(=O)NCC(=O)N[C@@H](CC(C)C)C(=O)N[C@@H](Cc1ccc(O)cc1)C(=O)N[C@@H](Cc1ccc(O)cc1)C(=O)N[C@@H](Cc1ccccc1)C(=O)O [peptide 3-1, Tyr-Tyr-Phe-Ala-Tyr-His-Pro-Asn-Ile-Pro-Gly-Leu-Tyr-Tyr-Phe] (H-YYFAYHPNIPGLYYF-OH)",,≥ 4.80,
